Test results published in patent US11590116B2 (THERAVANCE BIOPHARMA R&D IP, LLC, priority 2019, dated 2023).

Experiments:
[1] = tested on: TGF-β-stimulated SMAD3 phosphorylation in BEAS-2B cells; test: Cellular ALK5 potency assay, inhibition of TGF-β stimulated pSMAD3 formation in BEAS-2B cells; type: cell-based; details: Homo sapiens; inhibition of TGF-β stimulated pSMAD3 formation, BEAS-2B cells; read-out: BEAS2B pIC50 (converted)
Outline: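 Cells seeded overnight; rinse with supplemented HBSS; compound 1 h at 37 °C; TGF-β 10 ng/mL final, 30 min; lyse; AlphaLISA acceptor and detector beads 2 h apart, read next day. Potency expressed as pIC50.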

[2] = target: T1, recombinant human ALK5 (TGF-βR1) protein (Homo sapiens, UniProt P36897); test: Biochemical ALK5 (TGF-βR1) assay to measure pKi (LANCE Ultra ULight kinase assay); details: apparent pKi from pIC50 by Cheng-Prusoff, read-out: ALK5 pKi (converted)
T1 construct: purchased Life Technologies PR9075A
T1 sequence (P36897 34-503): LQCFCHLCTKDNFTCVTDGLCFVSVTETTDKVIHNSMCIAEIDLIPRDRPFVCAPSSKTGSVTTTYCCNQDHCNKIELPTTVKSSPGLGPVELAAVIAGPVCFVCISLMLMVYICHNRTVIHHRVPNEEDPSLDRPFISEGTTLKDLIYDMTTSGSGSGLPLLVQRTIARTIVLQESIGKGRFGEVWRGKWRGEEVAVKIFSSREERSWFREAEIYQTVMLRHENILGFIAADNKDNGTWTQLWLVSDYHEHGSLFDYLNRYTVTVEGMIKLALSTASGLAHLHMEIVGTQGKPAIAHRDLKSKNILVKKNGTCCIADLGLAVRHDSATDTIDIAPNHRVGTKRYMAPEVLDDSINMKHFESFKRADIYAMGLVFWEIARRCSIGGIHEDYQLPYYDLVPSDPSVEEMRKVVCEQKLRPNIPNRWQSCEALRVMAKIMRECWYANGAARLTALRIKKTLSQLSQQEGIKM
Outline: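 After a 60 min room-temperature preincubation of ALK5 with compound, phosphorylation proceeds 60 min at 37 °C on ATP addition (125 μM as 5× stock). Detection: Eu-labelled phospho-Thr1342 Topo IIα antibody in EDTA buffer, pH 7.0; emission 665 nm.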

| Ki [2] | Compound | IC50 [1] |
| --- | --- | --- |
| < 0.0316 nM | Cc1cccc(-c2[nH]cnc2-c2ccc3ncc(-c4ccc5c(c4)C(N)CC5)cc3c2)n1 (centres unmarked) [Compound 726, 6-[6-[5-(6-methyl-2-pyridyl)-1H-imidazol-4-yl]-3-quinolyl]indan-1-amine] | 25.1 to 158 nM |
| 0.398 to 3.16 nM | Cc1cccc(-c2[nH]cnc2-c2ccc3ncc(-c4nccc(C(=O)O)n4)cc3c2)n1 [Compound 1109, 2-[6-[5-(6-methyl-2-pyridyl)-1H-imidazol-4-yl]-3-quinolyl]pyrimidine-4-carboxylic acid] | 1580 to 10000 nM |
| 0.0398 to 0.316 nM | Cc1cccc(-c2[nH]cnc2-c2ccc3ncc(NCCN4CC5(CNC5)C4)cc3c2)n1 [Compound 709, N-[2-(2,6-diazaspiro[3.3]heptan-2-yl)ethyl]-6-[5-(6-methyl-2-pyridyl)-1H-imidazol-4-yl]quinolin-3-amine] | 25.1 to 158 nM |
| < 0.0316 nM | Cc1cccc(-c2[nH]cnc2-c2ccc3ncc(-c4nc(C(=O)OCCNC5CNC5)cs4)cc3c2)n1 [Compound 1254, 2-(azetidin-3-ylamino)ethyl 2-[6-[5-(6-methyl-2-pyridyl)-1H-imidazol-4-yl]-3-quinolyl]thiazole-4-carboxylate] | 200 to 1260 nM |
| 0.0398 to 0.316 nM | Cc1cccc(-c2[nH]cnc2-c2ccc3ncc(C4=CCN(C(=O)[C@@H]5CCCN5)CC4)cc3c2)n1 [Compound 779, [4-[6-[5-(6-methyl-2-pyridyl)-1H-imidazol-4-yl]-3-quinolyl]-3,6-dihydro-2H-pyridin-1-yl]-[(2S)-pyrrolidin-2-yl]methanone] | 25.1 to 158 nM |
| < 0.0316 nM | Cc1nc(-c2n[nH]cc2-c2ccc3ncc(-c4cn5c(n4)NCC5)cc3n2)ccc1F [Compound 658, 7-(2,3-dihydro-1H-imidazo[1,2-a]imidazol-6-yl)-2-[3-(5-fluoro-6-methyl-2-pyridyl)-1H-pyrazol-4-yl]-1,5-naphthyridine] | < 20 nM |

The next lines start with the compound.

| Compound | Ki [2] | IC50 [1] |
| --- | --- | --- |
| Cc1cccc(-c2[nH]cnc2-c2ccc3ncc(-c4ccc5c(c4)CC(N)C5)cc3c2)n1 (centres unmarked) [Compound 163, 5-[6-[5-(6-methyl-2-pyridyl)-1H-imidazol-4-yl]-3-quinolyl]indan-2-amine] | 0.0398 to 0.316 nM | < 20 nM |
| CNC1(Cn2cc(-c3cnc4ccc(-c5c[nH]nc5-c5ccc(F)c(C)n5)nc4c3)cn2)CC1 [Compound 97, 1-[[4-[6-[3-(5-fluoro-6-methyl-2-pyridyl)-1H-pyrazol-4-yl]-1,5-naphthyridin-3-yl]pyrazol-1-yl]methyl]-N-methyl-cyclopropanamine] | < 0.0316 nM | < 20 nM |
| Cc1cccc(-c2[nH]ncc2-c2ccc3ncc(C(=O)OCC4CNC4)cc3n2)n1 [Compound 419, azetidin-3-ylmethyl 6-[5-(6-methyl-2-pyridyl)-1H-pyrazol-4-yl]-1,5-naphthyridine-3-carboxylate] | 0.0398 to 0.316 nM | 25.1 to 158 nM |
| Cc1cccc(-c2n[nH]cc2-c2ccc3ncc(-c4cc5n(n4)CCN5)cc3n2)n1 [Compound 564, 7-(2,3-dihydro-1H-imidazo[1,2-b]pyrazol-6-yl)-2-[3-(6-methyl-2-pyridyl)-1H-pyrazol-4-yl]-1,5-naphthyridine] | < 0.0316 nM | < 20 nM |
| Cc1nc(-c2n[nH]cc2-c2ccc3ncc(-c4cnn([C@H]5CC[C@@H](N)C5)c4)cc3n2)ccc1F (racemic) [Compound 96, rac-(1R,3S)-3-[4-[6-[3-(5-fluoro-6-methyl-2-pyridyl)-1H-pyrazol-4-yl]-1,5-naphthyridin-3-yl]pyrazol-1-yl]cyclopentanamine] | < 0.0316 nM | 25.1 to 158 nM |
| Cc1cccc(-c2n[nH]cc2-c2ccc3ncc(-c4ccncc4)cc3n2)n1 [Compound 565, 2-[3-(6-methyl-2-pyridyl)-1H-pyrazol-4-yl]-7-(4-pyridyl)-1,5-naphthyridine] | < 0.0316 nM | < 20 nM |
| Cc1nc(-c2n[nH]cc2-c2ccc3ncc(-c4[nH]nc5c4CNCC5)cc3n2)ccc1F [Compound 173, 2-[3-(5-fluoro-6-methyl-2-pyridyl)-1H-pyrazol-4-yl]-7-(4,5,6,7-tetrahydro-2H-pyrazolo[4,3-c]pyridin-3-yl)-1,5-naphthyridine] | 0.0398 to 0.316 nM | 200 to 1260 nM |
| Cc1cccc(-c2n[nH]cc2-c2ccc3ncc(-c4ncco4)cc3n2)n1 [Compound 72, 2-[6-[3-(6-methyl-2-pyridyl)-1H-pyrazol-4-yl]-1,5-naphthyridin-3-yl]oxazole] | 0.0398 to 0.316 nM | 25.1 to 158 nM |
| Cc1cccc(-c2n[nH]cc2-c2ccc3ncc(N4CCC5(CCNC5)C4)cc3n2)n1 (centres unmarked) [Compound 10, 7-(2,7-diazaspiro[4.4]nonan-2-yl)-2-[3-(6-methyl-2-pyridyl)-1H-pyrazol-4-yl]-1,5-naphthyridine] | 0.0398 to 0.316 nM | 200 to 1260 nM |
| Cc1cccc(-c2n[nH]cc2-c2ccc3ncc(-c4ccc(=O)n(C)c4)cc3n2)n1 [Compound 345, 1-methyl-5-[6-[3-(6-methyl-2-pyridyl)-1H-pyrazol-4-yl]-1,5-naphthyridin-3-yl]pyridin-2-one] | < 0.0316 nM | < 20 nM |
